Source: US20230248722A1, “CLOFAZIMINE COMPOSITION AND METHOD FOR THE TREATMENT OR PROPHYLAXIS OF VIRAL INFECTIONS” (priority 2020, published 2023)

Test system: SARS-CoV-2
Assay type: cell-based
Conditions: in vitro; 2.5 μM (or ~1.2 μg clofazimine/ml)

For `CC(C)/N=c1\cc2n(-c3ccc(Cl)cc3)c3ccccc3nc-2cc1Nc1ccc(Cl)cc1` [clofazimine, N,5-bis(4-chlorophenyl)-3-propan-2-yliminophenazin-2-amine], the “reduce or eliminate viral replication” value was 40%.
